From patent US20230391768A2, “IMIDAZOPYRIDINE DERIVATIVES AND AZA-IMIDAZOPYRIDINE DERIVATIVES AS JANUS KINASE 2 INHIBITORS AND USES THEREOF” (Dana-Farber Cancer Institute, Inc., priority 2018, published 2023)

Experiments:
Assay in all cases: KINOMEscan
Format in all cases: binding
Settings in all cases: read-out: percent of control
SGK2 = SGK2 (Homo sapiens (Human), UniProt Q9HBY8)
Procedure: (§1) In vitro profiling of Compound I-2 (1 μM) was performed using the DiscoveRx KINOMEscan® platform.

LKB1 = LKB1 (Homo sapiens (Human), UniProt Q15831)
Procedure: as §1

PRKG2 = PRKG2 (Homo sapiens (Human), UniProt Q13237)
Procedure: as §1

EGFR(T790M) = EGFR(T790M) (Homo sapiens (Human), UniProt P00533, T790M)
Procedure: as §1

ERN1 = ERN1 (Homo sapiens (Human), UniProt O75460)
Procedure: as §1

MEK6 = MEK6 (Homo sapiens (Human), UniProt P52564)
Procedure: as §1

MAP3K2 = MAP3K2 (Homo sapiens (Human), UniProt Q9Y2U5)
Procedure: as §1

Sequence of EGFR(T790M) (P00533 25-1210 T790M): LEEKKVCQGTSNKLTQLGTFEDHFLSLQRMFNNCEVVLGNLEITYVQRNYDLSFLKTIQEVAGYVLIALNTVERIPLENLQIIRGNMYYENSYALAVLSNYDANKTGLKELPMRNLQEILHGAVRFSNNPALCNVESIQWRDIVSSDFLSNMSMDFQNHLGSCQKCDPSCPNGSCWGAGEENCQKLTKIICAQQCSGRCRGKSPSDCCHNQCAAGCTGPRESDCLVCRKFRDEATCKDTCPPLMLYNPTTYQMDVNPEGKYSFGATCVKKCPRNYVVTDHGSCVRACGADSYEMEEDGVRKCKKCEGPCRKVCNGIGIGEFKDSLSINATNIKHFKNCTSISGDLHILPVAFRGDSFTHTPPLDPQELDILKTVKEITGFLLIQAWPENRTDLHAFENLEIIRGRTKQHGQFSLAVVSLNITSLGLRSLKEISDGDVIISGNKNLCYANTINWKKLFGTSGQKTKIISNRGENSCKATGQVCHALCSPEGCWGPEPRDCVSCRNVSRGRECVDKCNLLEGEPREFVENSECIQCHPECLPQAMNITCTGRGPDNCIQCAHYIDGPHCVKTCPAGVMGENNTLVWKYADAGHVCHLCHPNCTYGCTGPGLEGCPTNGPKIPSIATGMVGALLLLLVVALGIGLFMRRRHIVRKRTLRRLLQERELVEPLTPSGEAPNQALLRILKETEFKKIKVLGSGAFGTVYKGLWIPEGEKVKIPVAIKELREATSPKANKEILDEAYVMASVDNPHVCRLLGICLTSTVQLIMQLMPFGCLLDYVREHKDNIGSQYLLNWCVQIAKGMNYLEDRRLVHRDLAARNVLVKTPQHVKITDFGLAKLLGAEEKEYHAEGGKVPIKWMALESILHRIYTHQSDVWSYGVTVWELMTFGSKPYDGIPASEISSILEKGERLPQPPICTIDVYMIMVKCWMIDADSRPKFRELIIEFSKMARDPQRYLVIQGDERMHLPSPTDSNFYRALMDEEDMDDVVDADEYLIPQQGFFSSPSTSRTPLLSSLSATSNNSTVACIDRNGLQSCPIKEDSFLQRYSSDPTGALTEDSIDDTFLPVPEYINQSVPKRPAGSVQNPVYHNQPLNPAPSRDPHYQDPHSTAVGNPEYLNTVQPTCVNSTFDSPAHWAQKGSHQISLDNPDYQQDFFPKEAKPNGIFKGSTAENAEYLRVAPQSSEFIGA
Sequence of PRKG2 (Q13237 whole entry): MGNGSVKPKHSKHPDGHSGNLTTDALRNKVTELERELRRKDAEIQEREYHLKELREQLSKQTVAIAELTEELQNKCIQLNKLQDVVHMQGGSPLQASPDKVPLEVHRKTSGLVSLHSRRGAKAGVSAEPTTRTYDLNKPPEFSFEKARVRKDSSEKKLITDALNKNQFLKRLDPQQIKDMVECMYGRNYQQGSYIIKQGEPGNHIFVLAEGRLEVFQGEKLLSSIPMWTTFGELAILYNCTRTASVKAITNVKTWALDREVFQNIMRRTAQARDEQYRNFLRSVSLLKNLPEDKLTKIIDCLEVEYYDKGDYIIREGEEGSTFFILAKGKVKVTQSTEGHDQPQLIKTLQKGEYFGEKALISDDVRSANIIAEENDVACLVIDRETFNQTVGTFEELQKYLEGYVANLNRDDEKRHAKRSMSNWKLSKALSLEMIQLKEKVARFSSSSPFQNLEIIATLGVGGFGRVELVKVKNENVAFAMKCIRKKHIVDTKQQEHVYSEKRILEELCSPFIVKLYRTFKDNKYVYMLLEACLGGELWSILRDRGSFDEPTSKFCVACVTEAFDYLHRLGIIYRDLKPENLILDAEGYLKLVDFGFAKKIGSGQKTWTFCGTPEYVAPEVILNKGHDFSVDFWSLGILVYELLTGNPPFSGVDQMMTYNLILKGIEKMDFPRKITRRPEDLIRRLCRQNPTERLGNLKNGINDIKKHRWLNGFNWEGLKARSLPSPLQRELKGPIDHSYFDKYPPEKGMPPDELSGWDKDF
Sequence of ERN1 (O75460 19-977): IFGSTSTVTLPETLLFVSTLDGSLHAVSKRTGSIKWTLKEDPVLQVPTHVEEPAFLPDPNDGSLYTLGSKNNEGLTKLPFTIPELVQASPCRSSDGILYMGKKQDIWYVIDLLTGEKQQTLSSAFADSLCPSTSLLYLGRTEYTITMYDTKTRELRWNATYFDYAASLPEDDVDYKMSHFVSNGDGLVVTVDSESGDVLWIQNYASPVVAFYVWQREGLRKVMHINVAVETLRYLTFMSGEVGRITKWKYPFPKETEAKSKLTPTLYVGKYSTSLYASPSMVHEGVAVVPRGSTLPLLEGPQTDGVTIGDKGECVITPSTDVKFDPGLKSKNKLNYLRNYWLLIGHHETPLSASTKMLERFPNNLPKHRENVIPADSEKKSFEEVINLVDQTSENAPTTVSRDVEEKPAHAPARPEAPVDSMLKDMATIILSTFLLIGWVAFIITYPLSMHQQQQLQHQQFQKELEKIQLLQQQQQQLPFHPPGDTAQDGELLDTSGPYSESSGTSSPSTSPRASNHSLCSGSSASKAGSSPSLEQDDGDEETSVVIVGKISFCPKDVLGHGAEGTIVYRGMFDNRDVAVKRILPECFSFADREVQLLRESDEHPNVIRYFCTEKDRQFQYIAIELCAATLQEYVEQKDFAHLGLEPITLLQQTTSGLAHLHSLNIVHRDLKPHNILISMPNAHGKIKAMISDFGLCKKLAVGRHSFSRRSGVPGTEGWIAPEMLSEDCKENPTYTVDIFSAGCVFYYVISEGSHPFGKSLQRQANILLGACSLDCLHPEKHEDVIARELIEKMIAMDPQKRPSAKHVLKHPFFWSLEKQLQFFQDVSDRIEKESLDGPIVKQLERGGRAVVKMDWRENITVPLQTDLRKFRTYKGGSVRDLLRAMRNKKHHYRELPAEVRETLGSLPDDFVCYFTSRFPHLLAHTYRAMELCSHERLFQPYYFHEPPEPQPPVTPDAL
Sequence of SGK2 (Q9HBY8 whole entry): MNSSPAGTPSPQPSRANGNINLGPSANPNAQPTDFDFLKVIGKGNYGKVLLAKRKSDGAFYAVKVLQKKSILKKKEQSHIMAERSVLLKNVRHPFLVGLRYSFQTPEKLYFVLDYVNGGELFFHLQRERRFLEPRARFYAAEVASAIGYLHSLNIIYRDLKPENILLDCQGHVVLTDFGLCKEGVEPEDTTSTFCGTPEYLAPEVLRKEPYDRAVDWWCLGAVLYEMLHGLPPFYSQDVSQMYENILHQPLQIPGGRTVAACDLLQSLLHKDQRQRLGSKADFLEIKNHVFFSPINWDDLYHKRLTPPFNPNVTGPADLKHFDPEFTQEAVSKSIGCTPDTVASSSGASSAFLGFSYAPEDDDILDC
Sequence of MEK6 (P52564 whole entry): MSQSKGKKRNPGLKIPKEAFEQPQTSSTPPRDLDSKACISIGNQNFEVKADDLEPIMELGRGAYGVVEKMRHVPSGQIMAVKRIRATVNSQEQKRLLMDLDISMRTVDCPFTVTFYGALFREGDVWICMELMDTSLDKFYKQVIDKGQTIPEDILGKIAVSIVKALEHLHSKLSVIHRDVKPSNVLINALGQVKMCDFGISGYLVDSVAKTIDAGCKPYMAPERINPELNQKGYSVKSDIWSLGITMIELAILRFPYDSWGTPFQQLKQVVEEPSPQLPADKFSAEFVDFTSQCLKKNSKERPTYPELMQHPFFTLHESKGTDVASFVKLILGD
Sequence of MAP3K2 (Q9Y2U5 whole entry): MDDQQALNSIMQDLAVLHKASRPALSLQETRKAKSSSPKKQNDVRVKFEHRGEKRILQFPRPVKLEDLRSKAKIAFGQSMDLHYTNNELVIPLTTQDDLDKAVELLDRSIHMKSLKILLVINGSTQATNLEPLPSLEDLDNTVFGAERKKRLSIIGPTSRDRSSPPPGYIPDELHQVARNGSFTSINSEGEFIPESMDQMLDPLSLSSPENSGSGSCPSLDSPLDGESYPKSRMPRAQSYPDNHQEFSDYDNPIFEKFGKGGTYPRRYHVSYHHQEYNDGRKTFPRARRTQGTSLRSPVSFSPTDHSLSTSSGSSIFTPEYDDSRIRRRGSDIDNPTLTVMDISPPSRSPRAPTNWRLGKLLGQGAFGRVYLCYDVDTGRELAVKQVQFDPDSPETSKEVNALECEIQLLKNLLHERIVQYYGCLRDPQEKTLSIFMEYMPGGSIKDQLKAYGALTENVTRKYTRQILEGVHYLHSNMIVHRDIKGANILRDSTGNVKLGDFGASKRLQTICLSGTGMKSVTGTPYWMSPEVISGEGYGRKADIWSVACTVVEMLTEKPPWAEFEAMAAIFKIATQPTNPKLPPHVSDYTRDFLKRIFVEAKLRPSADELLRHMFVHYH
Sequence of LKB1 (Q15831 whole entry): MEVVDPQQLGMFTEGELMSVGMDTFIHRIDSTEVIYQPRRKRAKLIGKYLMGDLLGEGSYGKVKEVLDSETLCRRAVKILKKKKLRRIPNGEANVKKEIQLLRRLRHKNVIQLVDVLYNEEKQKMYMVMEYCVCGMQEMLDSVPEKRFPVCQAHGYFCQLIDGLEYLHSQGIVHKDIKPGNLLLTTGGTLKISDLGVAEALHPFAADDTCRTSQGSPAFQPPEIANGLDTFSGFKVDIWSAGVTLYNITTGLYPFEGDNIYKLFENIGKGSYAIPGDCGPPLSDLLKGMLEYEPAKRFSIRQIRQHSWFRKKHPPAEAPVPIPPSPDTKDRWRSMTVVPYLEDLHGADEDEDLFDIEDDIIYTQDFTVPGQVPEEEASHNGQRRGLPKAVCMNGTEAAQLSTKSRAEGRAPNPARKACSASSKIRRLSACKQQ

Structure (SMILES) | remaining binding at 1 µM (SGK2) [%] | remaining binding at 1 µM (LKB1) [%] | remaining binding at 1 µM (PRKG2) [%] | remaining binding at 1 µM (EGFR(T790M)) [%] | remaining binding at 1 µM (ERN1) [%] | remaining binding at 1 µM (MEK6) [%] | remaining binding at 1 µM (MAP3K2) [%]
CCN1CCN(Cc2cc(NC(=O)c3ccc(C)c(-c4ccc5nc(NC(=O)C6CC6)cn5c4)c3)cc(C(F)(F)F)c2)CC1 [Compound I-6, 3-(2-(cyclopropanecarboxamido)imidazo[1,2-a]pyridin-6-yl)-N-(3-((4-ethylpiperazin-1-yl)methyl)-5-(trifluoromethyl)phenyl)-4-methylbenzamide] | 76 | 100 | 99 | 15 | 78 | 95 | 78
CCN1CCN(Cc2cc(NC(=O)c3ccc(C)c(-c4ccc5nc(NC(=O)C6CC6)cn5n4)c3)cc(C(F)(F)F)c2)CC1 [Compound I-2, 3-(2-(cyclopropanecarboxamido)imidazo[1,2-b]pyridazin-6-yl)-N-(3-((4-ethylpiperazin-1-yl)methyl)-5-(trifluoromethyl)phenyl)-4-methylbenzamide] | 87 | 73 | 100 | 15 | 84 | 94 | 28
